The nature of series [1]: stability of solutions as a function of pH. It counts as physicochemical. The note with it: below a pH of 6. An excerpt:
As is discussed above the pH range for CHT and CH-BENZ solutions for use in this invention can be from about 6- 14. […] While the solutions of this invention are effective above a pH of 10.0, solutions having a pH of 10.0 can only be used for industrial applications, due to their caustic nature.
This stability is important in domestic applications of this invention where long shelf life is very desirable.

The nature of series [2]: limit of solubility in water. To be noted: at room temperature in water.

As to `O=C([O-])c1ccc(S(=O)(=O)NCl)cc1.[Na+]` [CH-BENZ, N-Chloro-4-Carboxybenzenesulfonamide sodium salt], in series [1], the “stability in acidic medium” value is given as “tend to decompose”. The limit of solubility entry in series [2] is given as “about 20%”.
On to `Cc1ccc(S(=O)(=O)[N-]Cl)cc1.[Na+]` [CHT, Chloramine-T], for which, in series [1], the “stability in acidic medium” value was “tend to decompose”. For the same molecule, the limit of solubility result in series [2] is “about 15%”.
